The record followed here is patent US20110027205A1, “USE OF MYRTLE EXTRACT AS DEPIGMENTING AGENT” (PIERRE FABRE DERMO-COSMETIQUE, priority 2008, published 2011).

In the test the test system is melanocytes. The test can be described thus: Activity on melanogenesis (melanin content of melanocytes, 450 nm). The following applies: Melanocyte, 72 hours, read-out: % inhibition of melanin synthesis. The class given is cell-based. The procedure: The melanocytes are left to incubate in a suitable culture medium at 37° C. for 72 hours in contact with the myrtle extract according to example 1, at different concentrations, and with hydroquinone, the reference substance. At the end of the incubation period, the melanocytes are collected and washed. The cells are then treated with a sodium solution to extract the melanin. The stained solutions are then assayed under 450 nm spectrophotometry for their melanin content using a calibration curve. A melanogenesis-inhibiting activity of the tested products will translate as a lower melanin content in the extracted melanocyte solutions. A prior cytotoxicity test is evidently performed on these same cells to verify the non-toxicity of the extracts at the tested concentrations.

As usually defined, the inhibition is the relative decrease from the control value, in per cent. On to `Oc1ccc(O)cc1` [Hydroquinone], for which the inhibition at 5 µM (0.005 mM) came to 35.7%. Further, for the setting “0.01 mM”, the inhibition at 10 µM is 58%.
